Experimental data published in PubChem BioAssay (NCI).
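Assay format: 96-well plates, 48-hour exposure. TGI marks complete inhibition of growth.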

What was measured:
Assay in all cases: NCI-60 cell line screen, 48 h
A549 NSCLC = test system: A549 NSCLC
ACHN renal = test system: ACHN renal
CAKI-1 renal = test system: CAKI-1 renal
HCC-2998 colon = test system: HCC-2998 colon
HCT-116 colon = test system: HCT-116 colon
KM12 colon = test system: KM12 colon
MOLT-4 leukemia = test system: MOLT-4 leukemia
NCI-H23 lung = test system: NCI-H23 lung
OVCAR-5 ovarian = test system: OVCAR-5 ovarian
RPMI-8226 leukemia = test system: RPMI-8226 leukemia
SF-295 CNS = test system: SF-295 CNS
SF-539 CNS = test system: SF-539 CNS
SK-MEL-28 melanoma = test system: SK-MEL-28 melanoma
SN12C renal = test system: SN12C renal
SNB-75 CNS = test system: SNB-75 CNS
TK-10 renal = test system: TK-10 renal
UACC-257 melanoma = test system: UACC-257 melanoma
MDA-MB-435 = test system: MDA-MB-435
MDA-N = test system: MDA-N
SR leukemia = test system: SR leukemia

Measured: TGI

O=C1CCCCC1C1(O)C(=O)Nc2cc(F)ccc21 (stereo not drawn)
not listed: MDA-MB-435 | MDA-N | SR leukemia
> 100 µM: all other assays above

Cc1ccc2c(=O)c(-c3nnsn3)c[nH]c2n1
not listed: HCC-2998 colon | SF-539 CNS | SNB-75 CNS | SR leukemia
> 100 µM: all other assays above

CC(C)CC(=O)N1CCN(C(=O)CC(C)C)c2ccccc21
not listed: CAKI-1 renal | SN12C renal | MDA-MB-435 | MDA-N | SR leukemia
> 100 µM: all other assays above

Cn1c(=O)c2c(ncn2CCCCn2ccnc2[N+](=O)[O-])n(C)c1=O
not listed: CAKI-1 renal | HCC-2998 colon | UACC-257 melanoma | MDA-MB-435 | MDA-N
> 100 µM: all other assays above

COc1ccc(C2Cc3cc(OC)c(OC)c(OC)c3C2=O)cc1 (stereo not drawn)
not listed: MDA-MB-435 | MDA-N | SR leukemia
> 100 µM: all other assays above

COc1ccc(NC(=O)CSc2nnc(Cc3ccccc3)o2)cc1
not listed: MDA-MB-435 | MDA-N | SR leukemia
> 100 µM: all other assays above

COC(=O)C(C(=O)C(=O)Nc1c(Cl)cc([N+](=O)[O-])cc1Cl)c1nc2cc(C)c(C)cc2[nH]c1=O (stereo not drawn)
not listed: SK-MEL-28 melanoma | MDA-MB-435 | MDA-N | SR leukemia
> 100 µM: all other assays above
